“And” between values parts separate entries of the source, which are not always exact repeats. Equal entries are not always repeated. Toxic doses and inconclusive results are not listed. How the source made its calls: active means survival T/C of 150% or more; inactive means T/C below 125% in these data.
Test system: CD2F1 mice, L1210 leukemia ip, survival T/C
Assay: NCI In Vivo Anticancer Drug Screen. Data for tumor model L1210 Leukemia (intraperitoneal) in CD2F1 (CDF1) mice
Details: higher = longer survival
Outline: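 Tumor-bearing mice (transplanted tumor) were split into treated and vehicle control groups, and the measured endpoint of each treated group was divided by that of its vehicle controls.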

[1] = endpoint: mean survival time, dose: 100.0 mg/kg/injection, schedule: Q04DX003 (ip), vehicle: saline with Tween-80
[2] = endpoint: mean survival time, dose: 200.0 mg/kg/injection, schedule: Q04DX003 (ip), vehicle: saline with Tween-80
[3] = endpoint: mean survival time, dose: 400.0 mg/kg/injection, schedule: Q04DX003 (ip), vehicle: saline with Tween-80
[4] = endpoint: mean survival time, dose: 50.0 mg/kg/injection, schedule: Q01DX009 (ip), vehicle: saline with Tween-80
[5] = endpoint: mean survival time, dose: 100.0 mg/kg/injection, schedule: Q01DX009 (ip), vehicle: saline with Tween-80
[6] = endpoint: mean survival time, dose: 200.0 mg/kg/injection, schedule: Q01DX009 (ip), vehicle: saline with Tween-80
[7] = endpoint: mean survival time, dose: 400.0 mg/kg/injection, schedule: Q01DX009 (ip), vehicle: saline with Tween-80
[8] = endpoint: mean survival time, dose: 50.0 mg/kg/injection, schedule: Q04DX002 (ip), vehicle: saline with Tween-80
[9] = endpoint: mean survival time, dose: 100.0 mg/kg/injection, schedule: Q04DX002 (ip), vehicle: saline with Tween-80
[10] = endpoint: mean survival time, dose: 200.0 mg/kg/injection, schedule: Q04DX002 (ip), vehicle: saline with Tween-80

Measured: T/C

O=C1C(O)CC(c2ccccc2)N1c1ccccc1 (stereo not drawn)
inactive: [1] 95 % of control | [2] 95 % of control | [3] 100 % of control

CCNCCNc1ccc(NCCNCC)c2c1C(=O)c1ccccc1C2=O
inactive: endpoint: mean survival time, dose: 2.0 mg/kg/injection, schedule: Q01DX009 (ip), vehicle: acid diluted with saline 122 % of control | endpoint: mean survival time, dose: 4.0 mg/kg/injection, schedule: Q01DX009 (ip), vehicle: acid diluted with saline 122 % of control and 123 % of control

O=C(CN1CCOCC1)Nc1nc(-c2ccc(Cl)cc2)cs1
inactive: endpoint: median survival time, dose: 12.5 mg/kg/injection, schedule: Q01DX009 (ip), vehicle: saline with Tween-80 102 % of control | endpoint: median survival time, dose: 25.0 mg/kg/injection, schedule: Q01DX009 (ip), vehicle: saline with Tween-80 98 % of control | endpoint: median survival time, dose: 50.0 mg/kg/injection, schedule: Q01DX009 (ip), vehicle: saline with Tween-80 98 % of control | endpoint: median survival time, dose: 100.0 mg/kg/injection, schedule: Q01DX009 (ip), vehicle: saline with Tween-80 105 % of control | endpoint: median survival time, dose: 200.0 mg/kg/injection, schedule: Q01DX009 (ip), vehicle: saline with Tween-80 93 % of control

CCOC(=S)SSC(=S)OCC
inactive: endpoint: mean survival time, dose: 100.0 mg/kg/injection, schedule: Q01DX001 (ip), vehicle: Klucel (hydroxypropylcellulose) (HPC) 92 % of control | endpoint: mean survival time, dose: 200.0 mg/kg/injection, schedule: Q01DX001 (ip), vehicle: Klucel (hydroxypropylcellulose) (HPC) 114 % of control

O=C(O)CN(CCO)CCN(CC(=O)O)CC(=O)O
inactive: endpoint: mean survival time, dose: 25.0 mg/kg/injection, schedule: Q01DX009 (ip), vehicle: saline with Tween-80 102 % of control | [4] 108 % of control | [5] 105 % of control | endpoint: mean survival time, dose: 100.0 mg/kg/injection, schedule: Q04DX003 (ip), vehicle: saline 104 % of control

COc1ncnc2c1c(C#N)cn2C1OC(CO)C(O)C1O (stereo not drawn)
inactive: endpoint: mean survival time, dose: 6.25 mg/kg/injection, schedule: Q01DX009 (ip), vehicle: saline 117 % of control | endpoint: mean survival time, dose: 25.0 mg/kg/injection, schedule: Q01DX009 (ip), vehicle: saline 109 % of control | endpoint: mean survival time, dose: 50.0 mg/kg/injection, schedule: Q01DX009 (ip), vehicle: saline 124 % of control | endpoint: mean survival time, dose: 100.0 mg/kg/injection, schedule: Q01DX009 (ip), vehicle: saline 91 % of control

C=C/C(C)=N/Nc1ccc([N+](=O)[O-])cc1[N+](=O)[O-]
inactive: [1] 94 % of control | [2] 95 % of control | [3] 95 % of control

O=C(Nc1c(Cl)cccc1Cl)OCCOc1ccc(Cl)cc1
inactive: [4] 94 % of control | [5] 105 % of control | [6] 105 % of control

Cc1noc(N)c1N
inactive: endpoint: median survival time, dose: 12.5 mg/kg/injection, schedule: Q01DX009 (ip), vehicle: water 98 % of control | endpoint: median survival time, dose: 25.0 mg/kg/injection, schedule: Q01DX009 (ip), vehicle: water 100 % of control | endpoint: median survival time, dose: 50.0 mg/kg/injection, schedule: Q01DX009 (ip), vehicle: water 100 % of control | endpoint: median survival time, dose: 100.0 mg/kg/injection, schedule: Q01DX009 (ip), vehicle: water 113 % of control and 104 % of control and 110 % of control | endpoint: median survival time, dose: 150.0 mg/kg/injection, schedule: Q01DX009 (ip), vehicle: water 109 % of control

COC(CCl)(CCl)OC
inactive: endpoint: mean survival time, dose: 10.0 mg/kg/injection, schedule: Q01DX009 (ip), vehicle: saline with Tween-80 87 % of control | endpoint: mean survival time, dose: 20.0 mg/kg/injection, schedule: Q01DX009 (ip), vehicle: saline with Tween-80 90 % of control

O=C1CSC(=S)N1
inactive: [5] 89 % of control | [1] 105 % of control | [6] 97 % of control | [2] 92 % of control | [3] 94 % of control

Nc1cc(=O)c2nnn(C3OC(CO)C(O)C3O)c2[nH]1 (stereo not drawn)
inactive: endpoint: mean survival time, dose: 12.5 mg/kg/injection, schedule: Q01DX005 (ip), vehicle: water 102 % of control | endpoint: mean survival time, dose: 25.0 mg/kg/injection, schedule: Q01DX005 (ip), vehicle: water 98 % of control | endpoint: mean survival time, dose: 50.0 mg/kg/injection, schedule: Q01DX005 (ip), vehicle: water 94 % of control | endpoint: mean survival time, dose: 100.0 mg/kg/injection, schedule: Q01DX005 (ip), vehicle: water 87 % of control | endpoint: mean survival time, dose: 200.0 mg/kg/injection, schedule: Q01DX005 (ip), vehicle: water 105 % of control | endpoint: mean survival time, dose: 400.0 mg/kg/injection, schedule: Q01DX005 (ip), vehicle: water 90 % of control

N#CC(C#N)=NNc1ccc(S(=O)(=O)c2ccc(NN=C(C#N)C#N)cc2)cc1
inactive: [5] 103 % of control | [6] 100 % of control | [7] 103 % of control

O=C(NC(CO)C(=O)OCc1ccccc1)OCc1ccccc1 (stereo not drawn)
inactive: [5] 107 % of control | [6] 96 % of control | [7] 91 % of control

COc1ccc(COC(=O)Nc2ccc(Cl)cc2)cc1
inactive: [8] 104 % of control | [9] 100 % of control | [10] 92 % of control

Clc1cc(Cl)c2nc[nH]c2c1
inactive: [4] 91 % of control | [5] 95 % of control

Cc1cc(Cc2c(C)c(C)c(Cc3cc(C)cc(C(C)(C)C)c3O)c(C)c2C)c(O)c(C(C)(C)C)c1
inactive: endpoint: mean survival time, dose: 100.0 mg/kg/injection, schedule: Q04DX003 (ip), vehicle: saline sonified 90 % of control | endpoint: mean survival time, dose: 200.0 mg/kg/injection, schedule: Q04DX003 (ip), vehicle: saline sonified 88 % of control | endpoint: mean survival time, dose: 400.0 mg/kg/injection, schedule: Q04DX003 (ip), vehicle: saline sonified 93 % of control

COc1cc2c(c3c1c(=O)c1cccc(F)c1n3C)C=CC(C)(C)O2
inactive: endpoint: median survival time, dose: 50.0 mg/kg/injection, schedule: Q01DX009 (ip), vehicle: Klucel (hydroxypropylcellulose) (HPC) 118 % of control | endpoint: median survival time, dose: 100.0 mg/kg/injection, schedule: Q01DX009 (ip), vehicle: Klucel (hydroxypropylcellulose) (HPC) 117 % of control | endpoint: median survival time, dose: 200.0 mg/kg/injection, schedule: Q01DX009 (ip), vehicle: Klucel (hydroxypropylcellulose) (HPC) 120 % of control and 90 % of control

CCCCCCCCCCCC[N+]1(C)CCC[N+](C)(CCCCCCCCCCCC)CC1 (stereo not drawn)
inactive: endpoint: mean survival time, dose: 18.7 mg/kg/injection, schedule: Q01DX001 (ip), vehicle: saline with Tween-80 116 % of control | endpoint: mean survival time, dose: 37.5 mg/kg/injection, schedule: Q01DX001 (ip), vehicle: saline with Tween-80 98 % of control | endpoint: mean survival time, dose: 75.0 mg/kg/injection, schedule: Q01DX001 (ip), vehicle: saline with Tween-80 113 % of control and 101 % of control

CC(=Nc1ccccc1)C1=C(O)C(Cc2ccc(O)c(O)c2)NC1=O (stereo not drawn)
inactive: [8] 103 % of control | [9] 103 % of control | [10] 100 % of control

Cc1cc(C)c(CCc2c(C)cc(C)cc2C)c(C)c1
inactive: endpoint: mean survival time, dose: 25.0 mg/kg/injection, schedule: Q04DX003 (ip), vehicle: saline with Tween-80 96 % of control | endpoint: mean survival time, dose: 50.0 mg/kg/injection, schedule: Q04DX003 (ip), vehicle: saline with Tween-80 98 % of control | [5] 89 % of control | [1] 100 % of control | [6] 96 % of control | [7] 93 % of control

CSc1ncnc2c(C3OC(COC(C)=O)C(OC(C)=O)C3OC(C)=O)[nH]nc12 (stereo not drawn)
inactive: endpoint: median survival time, dose: 8.0 mg/kg/injection, schedule: Q01DX005 (ip), vehicle: distilled water + Tween-80 94 % of control | endpoint: median survival time, dose: 16.0 mg/kg/injection, schedule: Q01DX005 (ip), vehicle: distilled water + Tween-80 103 % of control | endpoint: median survival time, dose: 32.0 mg/kg/injection, schedule: Q01DX005 (ip), vehicle: distilled water + Tween-80 96 % of control | endpoint: median survival time, dose: 64.0 mg/kg/injection, schedule: Q01DX005 (ip), vehicle: distilled water + Tween-80 103 % of control | endpoint: median survival time, dose: 128.0 mg/kg/injection, schedule: Q01DX005 (ip), vehicle: distilled water + Tween-80 106 % of control
